{
  "source": "patent US20210267996A1",
  "about": "“Compounds for inhibition of inflammation” (Children`s Medical Center Corporation, priority 2018, published 2021)",
  "key": {"caspase-1": {"target": "T1, caspase-1 (Homo sapiens, UniProt P29466)", "T1 sequence (P29466 120-404)": "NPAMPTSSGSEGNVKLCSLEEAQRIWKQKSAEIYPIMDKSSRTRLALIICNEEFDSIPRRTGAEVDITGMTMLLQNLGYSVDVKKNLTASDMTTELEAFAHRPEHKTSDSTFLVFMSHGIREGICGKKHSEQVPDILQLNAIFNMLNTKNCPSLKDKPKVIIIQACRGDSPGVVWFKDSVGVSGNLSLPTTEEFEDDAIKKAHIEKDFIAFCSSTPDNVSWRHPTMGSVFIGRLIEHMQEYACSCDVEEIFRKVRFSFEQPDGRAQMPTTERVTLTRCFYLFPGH", "test": "Caspase-1 inhibition assay (Ac-YVAD-AMC)", "assay_type": "biochemical", "method": "Caspase-1 and caspase-11 inhibition assays: the fluorogenic assay for caspase-1 and caspase-11 activity is based on release of 7-amino-4-methylcoumarin (AMC) from the caspase substrate Ac-YVAD-AMC. Compounds (8 nM-50 μM) were incubated with 0.5 U of caspase-1 or caspase-11 for 30 min in assay buffer (20 mM HEPES, 150 mM NaCl) in 384-well plates (Corning 3820) before addition of Ac-YVAD-AMC (40 μM) to initiate the reactions. Reactions were monitored in a SpectraMax M5 plate reader (Molecular Devices, Sunnyvale, Calif. USA) with excitation/emission wavelengths at 350/460 nm. The fluorescence intensity of each reaction was recorded every 2 min for 2 hrs.\nFluorescence intensity at 460 nm was measured after excitation at 350 nm."}, "NF-κB activation": {"system": "NF-κB activation", "test": "Inflammasome priming by LPS in THP-1 cells (immunoblot)", "assay_type": "cell-based, human", "conditions": "for NF-κB activation / pro-IL-1β induction: 30 μM, 1 hr before LPS; for NLRP3 induction: 1 hour before LPS", "method": "Immunoblot analysis: cell extracts were prepared using RIPA buffer (50 mM Tris-HCl pH 7.4, 150 mM NaCl, 1 mM EDTA, 1% Triton X-100, 0.1% SDS, 0.5% deoxycholate) supplemented with a complete protease inhibitor cocktail (Roche) and a PhosSTOP phosphatase inhibitor cocktail (Roche). Samples were subjected to SDS-PAGE and the resolved proteins were then transferred to a PVDF membrane (Millipore). Immunoblots were probed with indicated antibodies and visualized using a SuperSignal West Pico chemiluminescence ECL kit (Pierce).\nBecause both disulfiram and Bay 11-7082 non-specifically modify reactive Cys, their effects on the steps leading to pyroptosis and inflammatory caspase activation were next analyzed. Some of the genes that participate in the canonical inflammasome pathway are not expressed in unstimulated cells and their expression needs to be induced, often by binding to cell surface sensors of pathogen and danger-associated molecular patterns, such as Toll-like receptors (TLR), in a process called priming. Bay 11-7082 is known to inhibit NF-κB activation, a key transcription factor in priming. The effect of disulfiram and Bay 11-7082 on priming were first examined (FIG. 45). NF-κB activation was assessed by examining IκBα phosphorylation and degradation and RelA (p65) phosphorylation. Induction of pro-IL-1β was assessed by immunoblot for pro-IL1β protein. In the absence of disulfiram or Bay 11-7082, phosphorylation of p65 was first detected 30 min after adding LPS and persisted for 4 hrs, phosphorylation and reduced IκBα. were detected 1 hr after adding LPS, and increased pro-IL-1β was detected 4 hrs after adding LPS. […] Thus, disulfiram and Bay 11-7082 both inhibit priming.\nCell death was determined by CytoTox96 assay. […] Cell death was determined by CytoTox96 assay. […] Shown are immunoblots of whole cell lysates harvested 0.5 hr later. […] Representative images of ASC specks (arrowheads) and mean±s.d. percent of cells with ASC specks analyzed 20 min later (FIG. 47). Whole cell lysates (WCL) and culture supernatants (Sup) were harvested 30 min after adding nigericin and immunoblotted with the indicated antibodies (FIG. 50). Caspase-1 activity was assayed 30 min after adding nigericin using a cell-permeable fluorescence dye FAM-YVAD-FMK (FIG. 52). […] Representative images of ASC specks (arrowheads) and mean±s.d. percent of cells with ASC specks analyzed 20 min later (FIGS. 48 and 49). Whole cell lysates (WCL) and culture supernatants (Sup), harvested 30 min after adding nigericin, were analyzed by immunoblot (FIG. 51). […] The Figures show representative confocal microscopy images and quantification of proportion of cells with GSDMD membrane staining and pyroptotic bubbles. Arrows indicate GSDMD staining of pyroptotic bubbles. […] FIGS. 57 and 58, dose response curve of the effect of Bay 11-7082 on caspase-1 (FIG. 57) and caspase-11 (FIG. 58) activity against a fluorescent peptide substrate. FIGS. 59 and 60 show MS/MS spectra of the Cys191-containing GSDMD peptide […] (FIG. 60). FIGS. 61 and 62 show dose response curve of the effect of Bay 11-7082 on liposome leakage induced by 0.3 μM human GSDMD-3C (FIG. 61) or mouse GSDMA3-3C (FIG. 62) plus 0.15 μM 3C protease. […] 2-fold dilutions of Bay 11-7082 from 5-40 μM were used. Graphs show the mean±s.d; data are representative of three independent experiments. *P<0.05, **P<0.01.\nTo elucidate the cellular mechanism of pyroptosis inhibition by disulfiram, its effects on the entire inflammasome activation pathway were analyzed. Some of the genes that participate in the canonical inflammasome pathway are not expressed in unstimulated cells and their expression needs to be induced, often by binding to cell surface sensors of pathogen and danger-associated molecular patterns, such as Toll-like receptors (TLR), in a process called priming. […]"}},
  "data": [
    {"smiles": "CCN(CC)C(=S)SSC(=S)N(CC)CC", "note": "[C-23, Tetraethylthiuram disulfide]", "values": [
      {"measurement": "IC50", "setting": "caspase-1", "result": "150 ± 40", "unit": "nM"},
      {"measurement": "effect of Cu(II) on caspase-1 inhibition", "setting": "caspase-1; with Cu(II)", "result": "did not strongly change"},
      {"measurement": "NF-κB activation", "setting": "NF-κB activation", "result": "inhibited NF-κB activation"},
      {"measurement": "pro-IL-1β induction", "setting": "NF-κB activation; listed as disulfiram", "result": "blocked pro-IL-1β induction"},
      {"measurement": "NLRP3 induction", "setting": "NF-κB activation", "result": "blocked"}
    ]},
    {"smiles": "Cc1ccc(S(=O)(=O)/C=C/C#N)cc1", "note": "[Bay 11-7082]", "values": [
      {"measurement": "caspase-1 inhibition", "setting": "caspase-1", "result": "inhibited"},
      {"measurement": "NF-κB activation", "setting": "NF-κB activation", "result": "had a stronger effect"},
      {"measurement": "pro-IL-1β induction", "setting": "NF-κB activation", "result": "blocked pro-IL-1β induction"},
      {"measurement": "NLRP3 induction", "setting": "NF-κB activation", "result": "blocked"}
    ]}
  ]
}
